# In patent EP0144809A2, “Complex platinum compounds of substituted 5,8-dihydroxy-1,4 naphtoquinones, process for their preparation and their use” (NATEC Institut für naturwissenschaftlich- technische …, priority 1983, dated 1985):
# Test system: Ehrlich Ascites Tumor
# Test: Standard test with Ehrlich ascites tumor in ICR mice (antitumor activity)
# Format: in vivo, ICR-Mäusen
# Settings: Dose 6 mg Pt-Komplex pro kg, intraperitoneal on day 1 and day 6; Cure = animals that survived longer than 60 days; two groups (20 mice) for the control
# Excerpt: Zur Ermittlung der antikarzinogenen Aktivität der erfindungsgemäßen Platinkomplexverbindungen wurde der Standardtest mit dem Ehrlich Ascites Tumor an ICR-Mäusen angewendet. […] Die Tumorzellen sowie die Platinkomplexverbindungen wurden am Tag Null bzw. am 1. und 6. Tag intraperitonal injiziert. Die Resultate wurden in der nachstehenden Tabelle II zusammengestellt.
# Der Terminus "Cure" wurde vom National Cancer Institute, USA, übernommen und bedeutet, wieviele Tiere länger als 60 Tage überlebt haben. Aus den Resultaten geht deutlich hervor, daß die erfindungsgemäßen Platinkomplexverbindungen gegenüber den bekannten Antitumormitteln der Vergleichsbeispiele 1 und 7 eine mindestens gleich gute, meist sogar deutlich bessere Antitumorwirkung zeigen.
structure (smiles),measurement,value
"N.N.[Cl][Pt][Cl] [Positive Kontrolle, cis-Dichloro-diamino-platin(II)]","Anzahl der ""Cures"" pro Tiergruppe",4
